Holding throughout (format): cell-based, Nicotiana tabacum
The test system of data set [1] is α-amylase synthesis in tobacco protoplasts. The data set is described as follows: Transient expression in tobacco protoplasts (pNL200), α-amylase activity. Conditions: tunicamycin 20 μg/mL, 20 hr. An excerpt: We have established a model system based on the comparison of protein biosynthesis in the cytosol and on the rough ER using transient expression. A plasmid was constructed (pNL200, FIG. 12A) containing two genes, one encoding the secreted barley α-amylase (Rogers, 1985) and the other encoding the cytosolic marker β-glucuronidase (GUS; Jefferson et al., 1987). α-Amylase was used to measure secretory protein biosynthesis, and GUS was used to control for transfection efficiency and overall cell viability. We compared cells under normal culture conditions with cells subjected to ER stress by treatment with tunicamycin. […] Since α-amylase is not glycosylated, tunicamycin should not have a direct effect on this protein. The tunicamycin effect is protein-specific and not dependent on the promoter used. […]
(§1) Tobacco leaf protoplasts (from transformed or untransformed plants) were prepared, and electroporation experiments were performed as previously described (Denecke and Vitale, 1995), with minor modifications to the electroporation conditions. […] After 24 or 48 hr, the protoplasts were analysed by enzymatic assay or by protein gel blotting. […]
α-Amylase activity was measured with a kit (Megazyme, Australia). […] The absorbance was measured at a wavelength of 405 nm, with a microtiter plate reader against a blank containing stop buffer alone. […]

In data set [2] the test system is tobacco protoplasts (GUS, cell viability). The data set is described as follows: Transient expression in tobacco protoplasts (pNL200), GUS internal marker. Conditions: tunicamycin 20 μg/mL, 20 hr.
Source text: We have established a model system based on the comparison of protein biosynthesis in the cytosol and on the rough ER using transient expression. A plasmid was constructed (pNL200, FIG. 12A) containing two genes, one encoding the secreted barley α-amylase (Rogers, 1985) and the other encoding the cytosolic marker β-glucuronidase (GUS; Jefferson et al., 1987). α-Amylase was used to measure secretory protein biosynthesis, and GUS was used to control for transfection efficiency and overall cell viability. We compared cells under normal culture conditions with cells subjected to ER stress by treatment with tunicamycin. […]
as §1
GUS activity in protoplasts was measured with a […] assay. six mililiters of floated protoplasts were diluted in TEX buffer (B5 salts, 250 mg/L NH4NO3, 750 mg/L CaCl2, 500 mg/L MES, and 0.4 M sucrose, pH 5.7) and were spun down by the addition of 20 mL of 250 mM NaCl. […] The absorbance was measured at 415 nm against a blank containing stop buffer that had been incubated at 37° C. for the duration of the reaction time.

The next data set has as its system β-1,3-glucanase mRNA. Nature of the data set: Tunicamycin treatment of tobacco protoplasts, Northern blot of β-1,3-glucanase. Conditions: tunicamycin 20 μg/mL. Here is the method:
(§2) To compare the CDE- and UPR-mediated induction of BiP, we wanted to test if both stimuli are additive. […] This is not surprising as protoplasts are prepared with CDEs. These protoplasts were then treated with tunicanycin, to superimpose the UPR onto the CDE response. […] The additional ER stress could trap BiP in malfolded protein complexes, thus making it unavailable to promote PR protein synthesis on the rough ER.
During prolonged incubation times, transcript levels encoding secretory proteins recover to almost normal (initial) values again. Identical results were obtained with other transcripts encoding the secretory proteins acidic chitinase and basic chitinase present in tobacco protoplasts, showing that the effect is not restricted to β-1,3-glucanase (data not shown).
(§3) Protoplasts RNAs were extracted as described by Jones et al., (1985). Leaves were ground in frozen liquid nitrogen and transferred to NTES buffer (0.1 M NaCl, 10 mM Tris pH 7.5, 1 mM EDTA, 1% SDS). Protoplasts samples were frozen in liquid nitrogen and thawed in NTES buffer. RNA was extracted after adding an equal volume of phenol/chloroform. Ethanol precipitation was carried out after incubation at −20° C. for 16 hours. The pellet was resuspended and RNA was selectively precipitated with LiCl (2M LiCl) for 2 hours on ice. The pellet was washed with 70% ethanol and resuspended in diethyl pyrocarbonate-treated water. […]

A further data set concerns BiP mRNA. The data set is described as follows: Tunicamycin treatment of tobacco protoplasts, Northern blot of BiP. Particulars: tunicamycin 20 μg/mL, 2.5 hrs. Here is the method: as §2
as §3, with “water. Gel blots of total RNA denatured in formamide and formaldehyde were prepared. RNA was blotted onto Hybond-N membrane (Amersham Corp), as described by the manufacturer.” for “water.”

The values that follow come from patent US20060117411A1, “Enhancing plant pathogen resistance via increasing BiP levels” (priority 1998, published 2006).

For tunicamycin, the “total α-amylase activity in the cell suspension” value in data set [1] is listed as “greatly reduced”. The “cell viability monitored with the internal marker GUS” value in data set [2] was “does not affect cell viability”. The “transcript level of β-1,3-glucanase during UPR-induced BiP transcription (time course)” value in the data set on β-1,3-glucanase mRNA (protoplasts) is on record as “rapidly decreases”. Besides, the “β1,3-glucanase expression in protoplasts” value in the data set on β-1,3-glucanase mRNA (2.5 hrs) is recorded as “inhibited”. Moreover, in the data set with BiP mRNA, the “BiP induction on top of the CDE response in protoplasts” value is given as “further induction”.
